According to US10927123B2, “Modulators of the beta-3 adrenergic receptor useful for the treatment or prevention of disorders related thereto” (Arena Pharmaceuticals, Inc., priority 2016, dated 2021):
pIC50: −log10 of the molar value.

The molecules below were run against Beta-3 Adrenergic Receptor (Homo sapiens (Human), UniProt P13945) (assay: HTRF cAMP antagonist assay (IC50 determination)). Conditions: CHO-K1 cells stably expressing recombinant receptor; antagonism of isoproterenol at EC90; cAMP readout.
Assay type: cell-based
Method in brief: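 Antagonist mode: isoproterenol at its predetermined EC90 added after compound to recombinant CHO-K1 cells in IBMX-containing PBS, 1 h, room temperature. Compounds tested as 5-fold, 10-point dilutions, top final typically 10 or 100 μM. HTRF signal converted to cAMP via standard curve, giving IC50.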

Chain of Beta-3 Adrenergic Receptor (P13945 whole entry, species assumed): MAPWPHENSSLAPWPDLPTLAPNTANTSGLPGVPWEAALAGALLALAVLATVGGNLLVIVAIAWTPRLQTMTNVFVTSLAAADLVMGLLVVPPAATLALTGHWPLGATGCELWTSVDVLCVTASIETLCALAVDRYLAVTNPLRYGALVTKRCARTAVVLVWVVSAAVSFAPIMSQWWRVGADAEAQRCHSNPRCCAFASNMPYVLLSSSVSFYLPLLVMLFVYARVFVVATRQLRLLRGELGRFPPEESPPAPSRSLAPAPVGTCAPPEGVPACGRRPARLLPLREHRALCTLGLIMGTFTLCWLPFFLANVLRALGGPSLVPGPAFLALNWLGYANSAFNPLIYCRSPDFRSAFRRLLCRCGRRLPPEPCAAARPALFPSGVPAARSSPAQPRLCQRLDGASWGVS

| SMILES | pIC50 |
| --- | --- |
| C[C@H]1CN(C)c2cc(S(=O)(=O)N3CCC4(CC3)C[C@@H](NC[C@H](O)COc3cccc(S(=O)(=O)CC(N)=O)c3)CO4)cnc2O1 [Compound 278, 2-(3-((S)-3-((R)-8-((S)-1,3-dimethyl-2,3-dihydro-1H-pyrido[2,3-b][1,4]oxazin-7-ylsulfonyl)-1-oxa-8-azaspiro[4.5]decan-3-ylamino)-2-hydroxypropoxy)phenylsulfonyl)acetamide] | 6.23 |
| O=C1NCc2ncc(S(=O)(=O)N3CCC4(CC3)C[C@@H](NC[C@H](O)COc3cccc(S(=O)(=O)C5CC5)c3)CO4)cc21 [Compound 280, 3-((R)-3-((S)-3-(3-(cyclopropylsulfonyl)phenoxy)-2-hydroxypropylamino)-1-oxa-8-azaspiro[4.5]decan-8-ylsulfonyl)-6,7-dihydro-5H-pyrrolo[3,4-b]pyridin-5-one] | 7.02 |
| C[C@@H]1CN(C)c2cc(S(=O)(=O)N3CCC4(CC3)C[C@@H](NC[C@H](O)COc3cccc(S(=O)(=O)C5(CO)CC5)c3)CO4)cnc2O1 [Compound 283, (S)-1-((R)-8-((R)-1,3-dimethyl-2,3-dihydro-1H-pyrido[2,3-b][1,4]oxazin-7-ylsulfonyl)-1-oxa-8-azaspiro[4.5]decan-3-ylamino)-3-(3-(1-(hydroxymethyl)cyclopropylsulfonyl)phenoxy)propan-2-ol] | 7.16 |
| O=S(=O)(c1cnc2c(c1)CCCO2)N1CCC2(CC1)C[C@@H](NC[C@H](O)COc1cccc(S(=O)(=O)C3(CO)CC3)c1)CO2 [Compound 284, (S)-1-((R)-8-(3,4-dihydro-2H-pyrano[2,3-b]pyridin-6-ylsulfonyl)-1-oxa-8-azaspiro[4.5]decan-3-ylamino)-3-(3-(1-(hydroxymethyl)cyclopropylsulfonyl)phenoxy)propan-2-ol] | 6.97 |
| O=S(=O)(c1cnc2c(c1)OCCO2)N1CCC2(CC1)C[C@@H](NC[C@H](O)COc1cccc(S(=O)(=O)C3(CO)CC3)c1)CO2 [Compound 285, (S)-1-((R)-8-(2,3-dihydro-[1,4]dioxino[2,3-b]pyridin-7-ylsulfonyl)-1-oxa-8-azaspiro[4.5]decan-3-ylamino)-3-(3-(1-(hydroxymethyl)cyclopropylsulfonyl)phenoxy)propan-2-ol] | 6.52 |
| Cn1cnc2ccc(S(=O)(=O)N3CCC4(CC3)C[C@@H](NC[C@H](O)COc3cccc(S(=O)(=O)C5(CO)CC5)c3)CO4)nc21 [Compound 287, (S)-1-(3-(1-(hydroxymethyl)cyclopropylsulfonyl)phenoxy)-3-((R)-8-(3-methyl-3H-imidazo[4,5-b]pyridin-5-ylsulfonyl)-1-oxa-8-azaspiro[4.5]decan-3-ylamino)propan-2-ol] | 6.82 |
| CN1CC(C)(C)Oc2nc(S(=O)(=O)N3CCC4(CC3)C[C@@H](NC[C@H](O)COc3cccc(S(=O)(=O)C5(CO)CC5)c3)CO4)ccc21 [Compound 288, (S)-1-(3-(1-(hydroxymethyl)cyclopropylsulfonyl)phenoxy)-3-((R)-8-(1,3,3-trimethyl-2,3-dihydro-1H-pyrido[2,3-b][1,4]oxazin-6-ylsulfonyl)-1-oxa-8-azaspiro[4.5]decan-3-ylamino)propan-2-ol] | 6.75 |
| O=S(=O)(c1cccc(OC[C@@H](O)CN[C@H]2COC3(CCN(S(=O)(=O)c4cnc5c(c4)OCCO5)CC3)C2)c1)C1CC1 [Compound 289, (S)-1-(3-(cyclopropylsulfonyl)phenoxy)-3-((R)-8-(2,3-dihydro-[1,4]dioxino[2,3-b]pyridin-7-ylsulfonyl)-1-oxa-8-azaspiro[4.5]decan-3-ylamino)propan-2-ol] | 7.18 |
| O=S(=O)(c1cccc(OC[C@@H](O)CN[C@H]2COC3(CCN(S(=O)(=O)c4cnc5c(c4)CCCO5)CC3)C2)c1)C1CC1 [Compound 291, (5)-1-(3-(cyclopropylsulfonyl)phenoxy)-3-((R)-8-(3,4-dihydro-2H-pyrano[2,3-b]pyridin-6-ylsulfonyl)-1-oxa-8-azaspiro[4.5]decan-3-ylamino)propan-2-ol] | 7.16 |
| CCn1cc(S(=O)(=O)N2CCC3(CC2)C[C@@H](NC[C@H](O)COc2cccc(S(=O)(=O)C4(CO)CC4)c2)CO3)c(=O)c2ccccc21 [Compound 292, 1-ethyl-3-((R)-3-((S)-2-hydroxy-3-(3-(1-(hydroxymethyl)cyclopropylsulfonyl)phenoxy)propylamino)-1-oxa-8-azaspiro[4.5]decan-8-ylsulfonyl)quinolin-4(1H)-one] | 7.04 |
| CCn1cc(S(=O)(=O)N2CCC3(CC2)C[C@H](NC[C@H](O)COc2cccc(S(=O)(=O)C4(CO)CC4)c2)CO3)c(=O)c2ccccc21 [Compound 293, 1-ethyl-3-((S)-3-((S)-2-hydroxy-3-(3-(1-(hydroxymethyl)cyclopropylsulfonyl)phenoxy)propylamino)-1-oxa-8-azaspiro[4.5]decan-8-ylsulfonyl)quinolin-4(1H)-one] | 6.89 |
| CCn1cc(S(=O)(=O)N2CCC3(CC2)C[C@@H](NC[C@H](O)COc2cccc(S(=O)(=O)C(C)(C)CO)c2)CO3)c(=O)c2ccccc21 [Compound 294, 1-ethyl-3-((R)-3-((S)-2-hydroxy-3-(3-(1-hydroxy-2-methylpropan-2-ylsulfonyl)phenoxy)propylamino)-1-oxa-8-azaspiro[4.5]decan-8-ylsulfonyl)quinolin-4(1H)-one] | 6.96 |
| Cn1cc(S(=O)(=O)N2CCC3(CC2)C[C@@H](NC[C@H](O)COc2cccc(S(=O)(=O)C4(CO)CC4)c2)CO3)c(=O)c2ccccc21 [Compound 295, 3-((R)-3-((S)-2-hydroxy-3-(3-(1-(hydroxymethyl)cyclopropylsulfonyl)phenoxy)propylamino)-1-oxa-8-azaspiro[4.5]decan-8-ylsulfonyl)-1-methylquinolin-4(1H)-one] | 6.84 |
| CCn1cc(S(=O)(=O)N2CCC3(CC2)C[C@H](NC[C@@H](O)COc2cccc(S(C)(=O)=O)c2)CO3)c(=O)c2ccccc21 [Compound 296, 1-ethyl-3-((S)-3-((R)-2-hydroxy-3-(3-(methylsulfonyl)phenoxy)propylamino)-1-oxa-8-azaspiro[4.5]decan-8-ylsulfonyl)quinolin-4(1H)-one] | 6.97 |
| CCn1cc(S(=O)(=O)N2CCC3(CC2)C[C@@H](NC[C@H](O)COc2cccc(S(=O)(=O)C(F)(F)CO)c2)CO3)c(=O)c2ccccc21 [Compound 298, 3-((R)-3-((S)-3-(3-(1,1-difluoro-2-hydroxyethylsulfonyl)phenoxy)-2-hydroxypropylamino)-1-oxa-8-azaspiro[4.5]decan-8-ylsulfonyl)-1-ethylquinolin-4(1H)-one] | 7.08 |

Molecules with a higher pIC50, results first:

| pIC50 | SMILES |
| --- | --- |
| 7.78 | C[C@H]1CN(C)c2cc(S(=O)(=O)N3CCC4(CC3)C[C@H](NC[C@H](O)COc3cccc(S(=O)(=O)C5CC5)c3)CO4)cnc2O1 [Compound 277, (S)-1-(3-(cyclopropylsulfonyl)phenoxy)-3-((S)-8-((S)-1,3-dimethyl-2,3-dihydro-1H-pyrido[2,3-b][1,4]oxazin-7-ylsulfonyl)-1-oxa-8-azaspiro[4.5]decan-3-ylamino)propan-2-ol] |
| 7.40 | Cn1cnc2cc(S(=O)(=O)N3CCC4(CC3)C[C@@H](NC[C@H](O)COc3cccc(S(=O)(=O)C5CC5)c3)CO4)cnc21 [Compound 279, (S)-1-(3-(cyclopropylsulfonyl)phenoxy)-3-((R)-8-(3-methyl-3H-imidazo[4,5-b]pyridin-6-ylsulfonyl)-1-oxa-8-azaspiro[4.5]decan-3-ylamino)propan-2-ol] |
| 7.24 | O=c1[nH]c2cc(S(=O)(=O)N3CCC4(CC3)C[C@@H](NC[C@H](O)COc3cccc(S(=O)(=O)C5CC5)c3)CO4)cnc2[nH]1 [Compound 281, 6-((R)-3-((S)-3-(3-(cyclopropylsulfonyl)phenoxy)-2-hydroxypropylamino)-1-oxa-8-azaspiro[4.5]decan-8-ylsulfonyl)-1H-imidazo[4,5-b]pyridin-2(3H)-one] |
| 7.62 | O=S(=O)(c1cccc(OC[C@@H](O)CN[C@H]2COC3(CCN(S(=O)(=O)c4cnc5c(c4)CCCC5)CC3)C2)c1)C1CC1 [Compound 282, (S)-1-(3-(cyclopropylsulfonyl)phenoxy)-3-((R)-8-(5,6,7,8-tetrahydroquinolin-3-ylsulfonyl)-1-oxa-8-azaspiro[4.5]decan-3-ylamino)propan-2-ol] |
| 7.24 | CN1CCOc2cc(S(=O)(=O)N3CCC4(CC3)C[C@@H](NC[C@H](O)COc3cccc(S(=O)(=O)C5(CO)CC5)c3)CO4)cnc21 [Compound 286, (S)-1-(3-(1-(hydroxymethyl)cyclopropylsulfonyl)phenoxy)-3-((R)-8-(4-methyl-3,4-dihydro-2H-pyrido[3,2-b][1,4]oxazin-7-ylsulfonyl)-1-oxa-8-azaspiro[4.5]decan-3-ylamino)propan-2-ol] |
| 7.47 | CN1CCOc2cc(S(=O)(=O)N3CCC4(CC3)C[C@@H](NC[C@H](O)COc3cccc(S(=O)(=O)C5CC5)c3)CO4)cnc21 [Compound 290, (S)-1-(3-(cyclopropylsulfonyl)phenoxy)-3-((R)-8-(4-methyl-3,4-dihydro-2H-pyrido[3,2-b][1,4]oxazin-7-ylsulfonyl)-1-oxa-8-azaspiro[4.5]decan-3-ylamino)propan-2-ol] |
| 7.58 | CCn1cc(S(=O)(=O)N2CCC3(CC2)C[C@@H](NC[C@H](O)COc2cccc(S(=O)(=O)C4CC4)c2)CO3)c(=O)c2ccccc21 [Compound 297, 3-((R)-3-((S)-3-(3-(cyclopropylsulfonyl)phenoxy)-2-hydroxypropylamino)-1-oxa-8-azaspiro[4.5]decan-8-ylsulfonyl)-1-ethylquinolin-4(1H)-one] |
| 7.35 | CCn1cc(S(=O)(=O)N2CCC3(CC2)C[C@@H](NC[C@H](O)COc2cccc(S(=O)(=O)C(C)F)c2)CO3)c(=O)c2ccccc21 (stereo partly drawn) [Compound 299, 1-ethyl-3-((3R)-3-((2S)-3-(3-(1-fluoroethylsulfonyl)phenoxy)-2-hydroxypropylamino)-1-oxa-8-azaspiro[4.5]decan-8-ylsulfonyl)quinolin-4(1H)-one] |
